Target: T1, enzymes in the synthesis of aldosterone (Rattus norvegicus, UniProt P30099)
T1 construct: adrenal capsule/glomerulosa homogenates were prepared (6 mg/ml); from tissue; host or cells: adrenal capsule/glomerulosa of sodium-deficient young male Sprague-Dawley rats (homogenate, 500xg supernatant)
Test: inhibition of aldosterone formation from [3H]-DOC in adrenal capsule/glomerulosa homogenates
Assay type: biochemical, Sprague-Dawley rats
Settings: Kitz-Wilson plots, rat adrenal capsule/glomerulosa homogenate
Procedure: Young male Sprague-Dawley rats were maintained on a sodium-deficient diet for about two weeks prior to use. From these animals, adrenal capsule/glomerulosa homogenates were prepared (6 mg/ml) in pH 7.4 assay buffer [MgCl2 8.5 mM, CaCl2 2.7 mM, KCl 3.13 mM, NaCl 7.591 mM, TRIS 50 mM and 0.1% triethylamine] and centrifuged 500xg for 10 minutes.
Assays were conducted in 35 ml glass tubes maintained at 25° C. in a Dubnoff shaker with 95% O2 /5% CO2. The tubes contained the following material: 100 μl of an NADPH+ generating system, 300 μl of adrenal capsular/glomerulosa cytosol, and 50 μl of test compound or buffer (control). After initial preincubation intervals of 20 minutes, the 10-minute assay was started by the addition of 50 μl of tritium-labelled substrate, i.e., 1 μM [^3 H]-DOC. Reactions were quenched by the addition of 5 ml of ethyl acetate and non-radiolabelled steroids were also added. […]
Substrate remaining and products formed were monitored by UV absorbance at 246 nm and the amount of steroid compound present was quantified by [^3 H] radioactivity. […] The Ki time-dependent inhibition and the t1/2 for enzyme inactivation at infinite inhibitor concentration (t50) was determined by the linear regression analyses of t1/2 vs. 1/[I] data of Kitz-Wilson plots Using this procedure, the following results were observed: […]

Structure (SMILES) | t50 (t1/2 for enzyme inactivation at infinite inhibitor concentration)
CN(C1CC1)[C@H]1CC[C@H]2[C@@H]3CCC4=CC(=O)CC[C@]4(C)[C@H]3CC[C@]12C [17β-[N-methyl(cyclopropylamino)]androst-4-en-3-one] | 15.4 min
CN(C1CC1)[C@H]1CC[C@H]2[C@@H]3CC=C4C[C@@H](O)CC[C@]4(C)[C@H]3CC[C@]12C [17β-[N-methyl(cyclopropylamino)]androst-5-en-3β-ol] | 9.0 min

Reference: patent US5075464A, “17β-(cyclopropylamino)androstene derivatives” (Merrell Dow Pharmaceuticals Inc., priority 1989, dated 1991)
